Among the data in patent US20250282798A1, “HETEROARYL-SUBSTITUTED BICYCLIC COMPOUND AND USE THEREOF” (Medshine Discovery Inc., priority 2022, published 2025) are EC50 and IC50 values, retold here.

One assay relates to Jurkat cells. The assay can be described thus: IL-2 assay of Jurkat cells (ELISA). The assay is classed as cell-based. The conditions noted are these: CD3/CD28 antibodies, 48 hours. How it is done:
The concentration of Jurkat cells growing in the logarithmic phase was adjusted to 1×10^6/mL. 100 μL/well of the cells was taken and plated in a 96-well round-bottom plate coated with CD3 antibodies. The cells were treated with different concentrations of the compounds with the addition of CD28 antibodies for 48 hours. The supernatant of the cell culture was collected, diluted 5-fold, and added to an ELISA plate coated with IL-2. The enzyme-linked immunosorbent assay was performed according to the kit instructions (Dakewe, 1110202). OD570 and OD450 were read with Envision, and the data were analyzed by Prism.
For orientation: ELISA stands for enzyme-linked immunosorbent assay.

Another assay addresses human HPK1 (Homo sapiens (Human), UniProt Q92918). The assay can be described thus: 33P isotope-labeled kinase activity assay (Method 1). The conditions noted are these: HPK1 enzyme concentration 8.1 nM; ATP concentration 15 μM. The assay is classed as biochemical. On the procedure:
Method 1: The IC50 value was assayed by ^33P isotope-labeled kinase activity assay to evaluate the inhibitory ability of a test compound on human HPK1.
Enzyme buffer conditions: 50 mM Hepes (pH 7.5), 10 mM MgCl2, 1 mM EGTA, 0.01% Brij35, 2 mM DTT.
Assay steps: A compound was diluted 3-fold with DMSO in a dilution plate, with a final initial concentration of […] and 10 concentration gradient points. The compound was diluted 50-fold into the kinase reaction buffer, and the mixture was shaken on a shaker for 20 minutes. The kinase was prepared with the enzyme reaction buffer. 2 μL of kinase was added to each well of a reaction plate. 1 μL of the diluted compound in the buffer was added to each well. The plate was sealed with a sealing film, centrifuged at 1000 g for 30 seconds, and placed at room temperature for 10 minutes. The mixed solution of ATP/MBP was prepared with the enzyme reaction buffer. 2 μL of the mixed solution of ATP/MBP was added to the reaction plate. The plate was sealed with a sealing film, and centrifuged at 1000 g for 30 seconds. The mixture in the plate was reacted at room temperature for 60 minutes. […] The plate was incubated at 25° C. for 40 min. […] The plate was incubated at 25° C. for 40 min. The RLU (relative luminescence unit) signal was read with a BMG microplate reader, and the signal intensity was used to characterize the activity of the kinase.

Chain of human HPK1 (Q92918 whole entry): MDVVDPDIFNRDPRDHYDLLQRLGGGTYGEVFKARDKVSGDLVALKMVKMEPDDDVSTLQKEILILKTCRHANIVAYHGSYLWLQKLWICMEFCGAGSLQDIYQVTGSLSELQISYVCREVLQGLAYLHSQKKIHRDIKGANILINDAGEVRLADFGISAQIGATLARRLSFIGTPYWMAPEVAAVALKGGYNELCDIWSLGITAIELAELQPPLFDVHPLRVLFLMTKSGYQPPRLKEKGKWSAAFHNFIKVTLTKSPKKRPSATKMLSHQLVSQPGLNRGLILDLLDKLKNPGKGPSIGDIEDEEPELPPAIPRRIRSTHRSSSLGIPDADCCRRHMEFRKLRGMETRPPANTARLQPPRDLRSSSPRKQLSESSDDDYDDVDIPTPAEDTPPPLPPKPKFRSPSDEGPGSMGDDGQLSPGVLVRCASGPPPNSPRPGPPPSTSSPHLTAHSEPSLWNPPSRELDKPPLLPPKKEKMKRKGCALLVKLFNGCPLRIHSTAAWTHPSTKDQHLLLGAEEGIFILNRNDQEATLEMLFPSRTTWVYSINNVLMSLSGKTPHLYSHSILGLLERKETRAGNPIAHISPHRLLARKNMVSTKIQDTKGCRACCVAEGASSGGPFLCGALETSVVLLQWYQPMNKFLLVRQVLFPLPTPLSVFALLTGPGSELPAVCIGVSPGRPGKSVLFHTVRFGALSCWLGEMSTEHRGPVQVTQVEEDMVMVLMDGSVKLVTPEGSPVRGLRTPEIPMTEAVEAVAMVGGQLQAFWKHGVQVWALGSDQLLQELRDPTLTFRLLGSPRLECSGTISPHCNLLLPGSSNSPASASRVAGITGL

Compound `Cn1ccc2c(-c3ccc(Nc4ccc5c(n4)OC[C@H]4CNCCN54)c4c3CNC4=O)ccnc21` [Compound 5] gave an EC50 in the assay with Jurkat cells of 710 nM. For the same compound, the IC50 against human HPK1 came out at 3 nM.
In the assay on Jurkat cells (Homo sapiens), `CCN1CCN2c3ccc(Nc4ccc(-c5ccnc6c5ccn6C)c5c4C(=O)NC5)nc3OC[C@H]2C1` [Compound 6] yielded a half-maximal effective concentration (EC50) of 320 nM. At human HPK1, this compound came in with an IC50 of 8 nM.

Broadly, the EC50 is the concentration needed to bring the measured effect to its halfway point. A high value points to lower potency in that assay. Broadly, the IC50 is the midpoint of a concentration-inhibition curve. Read a high IC50 as weaker potency.
